Assay results from patent US20230015478A1, “GLP-1 RECEPTOR AGONISTS HAVING IMPROVED PHARMACOLOGICAL AND DRUG DELIVERY PROPERTIES” (priority 2021, published 2023).
Where two headings read alike, the source gives them in different places. Blank lines part the entries; values can stand above or below the compound they belong to. Square brackets hold non-standard residues; d marks the D form. Peptide text beside a SMILES is read from it. * marks the point of attachment. Dap(Nα-HOOC(CH2)16CO)OH = O=C(O)CCCCCCCCCCCCCCCCC(=O)N[C@@H](CN*)C(=O)O; Phe(F5) = N[C@@H](Cc1c(F)c(F)c(F)c(F)c1F)C(=O)O; Bip = N[C@@H](Cc1ccc(-c2ccccc2)cc1)C(=O)O; Hydrocinnamoyl(4-I) = O=C(CCc1ccc(I)cc1)*; X2 = O=C(CCc1ccc(I)cc1)N[C@@H](CN*)C(=O)O; αMePhe(2-F) = C[C@](N)(Cc1ccccc1F)C(=O)O; Phe(2-F) = N[C@@H](Cc1ccccc1F)C(=O)O; αMeP = C[C@@]1(C(=O)O)CCCN1; AEEA = NCCOCCOCC(=O)O; Aib = CC(C)(N)C(=O)O

Target: T1, hGLP1 receptor (Homo sapiens, UniProt P43220)
T1 construct: expressed in transfected cells; host or cells: HEK (human embryonic kidney) cells co-expressing hGLP1 receptor and CRE-Luciferase
T1 sequence (P43220 24-463): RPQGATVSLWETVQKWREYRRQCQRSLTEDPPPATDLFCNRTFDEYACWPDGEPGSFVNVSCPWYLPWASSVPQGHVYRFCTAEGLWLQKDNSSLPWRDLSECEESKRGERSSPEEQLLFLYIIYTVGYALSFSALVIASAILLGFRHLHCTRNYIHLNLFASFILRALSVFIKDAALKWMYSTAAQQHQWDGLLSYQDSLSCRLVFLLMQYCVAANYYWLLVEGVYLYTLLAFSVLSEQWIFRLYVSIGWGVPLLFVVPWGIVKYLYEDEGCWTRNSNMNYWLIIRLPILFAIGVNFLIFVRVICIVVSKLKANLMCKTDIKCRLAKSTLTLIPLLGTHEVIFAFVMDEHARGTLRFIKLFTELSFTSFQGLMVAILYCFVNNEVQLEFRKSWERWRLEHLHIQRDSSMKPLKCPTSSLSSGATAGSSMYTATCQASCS
Assay: cAMP HTRF agonist assay in HEK cells co-expressing hGLP1 receptor and CRE-Luciferase
Format: cell-based
How it was run: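 HEK cells co-expressing hGLP1R and CRE-luciferase, 1000 cells/well in DPBS with 500 μM IBMX, exposed to peptides or exendin-4 reference for 30 min; 11-point 1:3 series from top 1.0 μM. cAMP measured by HTRF (665/615 nm) after 1 h at room temperature; EC50 from 4-parameter logistic fit.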

[1] = cAMP EC50, nM (0.1% albumin), Table 2, 0.1% albumin
[2] = cAMP EC50, nM (0.1% albumin), Table 6, 0.1% albumin
[3] = cAMP EC50, nM (0.1% albumin), Table 4, 0.1% albumin
[4] = cAMP EC50, nM (0.1% albumin), Table 1, 0.1% albumin

EC50 [1]: 67 nM
SMILES: C[C@H](NC(=O)[C@H](CO)NC(=O)[C@@H](NC(=O)[C@H](Cc1ccccc1F)NC(=O)[C@@H](NC(=O)CNC(=O)[C@H](CCC(=O)O)NC(=O)C(C)(C)NC(=O)[C@@H](N)Cc1c[nH]cn1)[C@@H](C)O)[C@@H](C)O)C(=O)N[C@@H](Cc1ccc(-c2ccccc2)cc1)C(=O)N[C@@H](Cc1ccc(-c2ccccc2)cc1)C(N)=O [3-27, H2N-His-Aib-Glu-Gly-Thr-Phe(2-F)-Thr-Ser-Ala-Bip-Bip-C(O)NH2] (H-H[Aib]EGT[Phe(2-F)]TSA[Bip][Bip]-NH2)

EC50 [2]: 2.4 nM
SMILES: C[C@@H](O)[C@H](NC(=O)CNC(=O)[C@H](CCC(=O)O)NC(=O)[C@]1(C)CCCN1C(=O)[C@@H](N)Cc1c[nH]cn1)C(=O)N[C@@](C)(Cc1ccccc1F)C(=O)N[C@H](C(=O)N[C@@H](CO)C(=O)N[C@@H](CC(=O)O)C(=O)N[C@@H](Cc1ccc(-c2ccccc2)cc1)C(=O)N[C@@H](Cc1ccc(-c2ccccc2)cc1)C(=O)NCC(=O)NCC(=O)NCC(=O)N[C@@H](CCCCNC(=O)CCc1ccc(I)cc1)C(N)=O)[C@@H](C)O [4-67, H2N-His-α-MePro-Glu-Gly-Thr-α-MePhe(2-F)-Thr-Ser-Asp-Bip-Bip-C(O)NH-RY23] (H-H[αMeP]EGT[αMePhe(2-F)]TSD[Bip][Bip]GGGK(Hydrocinnamoyl(4-I))-NH2)

EC50 [3]: 0.37 nM | potency compared with the parent peptide analog (1-2) (replacement of Aib2, in words): slightly less potency
SMILES: CC(C)[C@H](NC(=O)[C@@H](N)Cc1c[nH]cn1)C(=O)N[C@@H](CCC(=O)O)C(=O)NCC(=O)N[C@H](C(=O)N[C@@](C)(Cc1ccccc1F)C(=O)N[C@H](C(=O)N[C@@H](CO)C(=O)N[C@@H](CC(=O)O)C(=O)N[C@@H](Cc1ccc(-c2ccccc2)cc1)C(=O)N[C@@H](Cc1ccc(-c2ccccc2)cc1)C(N)=O)[C@@H](C)O)[C@@H](C)O [3-39, H2N-His-Val-Glu-Gly-Thr-α-MePhe(2-F)-Thr-Ser-Asp-Bip-Bip-C(O)NH2] (H-HVEGT[αMePhe(2-F)]TSD[Bip][Bip]-NH2)

EC50 [1]: 0.29 nM
SMILES: C[C@H](NC(=O)[C@@H](N)Cc1c[nH]cn1)C(=O)N[C@@H](CCC(=O)O)C(=O)NCC(=O)N[C@H](C(=O)N[C@@H](Cc1ccccc1F)C(=O)N[C@H](C(=O)N[C@@H](CO)C(=O)N[C@@H](CC(=O)O)C(=O)N[C@@H](Cc1ccc(-c2ccccc2)cc1)C(=O)N[C@@H](Cc1ccc(-c2ccccc2)cc1)C(N)=O)[C@@H](C)O)[C@@H](C)O [3-21, H2N-His-Ala-Glu-Gly-Thr-Phe(2-F)-Thr-Ser-Asp-Bip-Bip-C(O)NH2] (H-HAEGT[Phe(2-F)]TSD[Bip][Bip]-NH2)

EC50 [1]: 20.3 nM
SMILES: C[C@H](NC(=O)C(C)(C)NC(=O)[C@@H](N)Cc1c[nH]cn1)C(=O)NCC(=O)N[C@H](C(=O)N[C@@H](Cc1ccccc1F)C(=O)N[C@H](C(=O)N[C@@H](CO)C(=O)N[C@@H](CC(=O)O)C(=O)N[C@@H](Cc1ccc(-c2ccccc2)cc1)C(=O)N[C@@H](Cc1ccc(-c2ccccc2)cc1)C(N)=O)[C@@H](C)O)[C@@H](C)O [3-22, H2N-His-Aib-Ala-Gly-Thr-Phe(2-F)-Thr-Ser-Asp-Bip-Bip-C(O)NH2] (H-H[Aib]AGT[Phe(2-F)]TSD[Bip][Bip]-NH2)

EC50 [2]: 2.2 nM
SMILES: C[C@@H](O)[C@H](NC(=O)CNC(=O)[C@H](CCC(=O)O)NC(=O)[C@]1(C)CCCN1C(=O)[C@@H](N)Cc1c[nH]cn1)C(=O)N[C@@](C)(Cc1ccccc1F)C(=O)N[C@H](C(=O)N[C@@H](CO)C(=O)N[C@@H](CC(=O)O)C(=O)N[C@@H](Cc1ccc(-c2ccccc2)cc1)C(=O)N[C@@H](Cc1ccc(-c2ccccc2)cc1)C(=O)NCCOCCOCC(=O)NCCOCCOCC(=O)NC[C@H](NC(=O)CCCCCCCCCCCCCCCCC(=O)O)C(=O)O)[C@@H](C)O [4-60, H2N-His-α-MePro-Glu-Gly-Thr-α-MePhe(2-F)-Thr-Ser-Asp-Bip-Bip-C(O)NH-RY16] (H-H[αMeP]EGT[αMePhe(2-F)]TSD[Bip][Bip][AEEA][AEEA]-{Dap(Nα-HOOC(CH2)16CO)OH})

EC50 [2]: 1.3 nM
SMILES: C[C@@H](O)[C@H](NC(=O)CNC(=O)[C@H](CCC(=O)O)NC(=O)[C@]1(C)CCCN1C(=O)[C@@H](N)Cc1c[nH]cn1)C(=O)N[C@@](C)(Cc1ccccc1F)C(=O)N[C@H](C(=O)N[C@@H](CO)C(=O)N[C@@H](CC(=O)O)C(=O)N[C@@H](Cc1ccc(-c2ccccc2)cc1)C(=O)N[C@@H](Cc1ccc(-c2ccccc2)cc1)C(=O)NCCOCCOCC(=O)NCCOCCOCC(=O)NCCOCCOCC(=O)NC[C@H](NC(=O)CCc1ccc(I)cc1)C(=O)O)[C@@H](C)O [4-59, H2N-His-α-MePro -Glu-Gly-Thr-α-MePhe(2-F)-Thr-Ser-Asp-Bip-Bip-C(O)NH-RY15] (H-H[αMeP]EGT[αMePhe(2-F)]TSD[Bip][Bip][AEEA][AEEA][AEEA]-X2)

More lines, now with the values behind:

SMILES: C[C@H](NC(=O)[C@H](CCC(=O)O)NC(=O)C(C)(C)NC(=O)[C@@H](N)Cc1c[nH]cn1)C(=O)N[C@H](C(=O)N[C@@H](Cc1ccccc1F)C(=O)N[C@H](C(=O)N[C@@H](CO)C(=O)N[C@@H](CC(=O)O)C(=O)N[C@@H](Cc1ccc(-c2ccccc2)cc1)C(=O)N[C@@H](Cc1ccc(-c2ccccc2)cc1)C(N)=O)[C@@H](C)O)[C@@H](C)O [3-23, H2N-His-Aib-Glu-Ala-Thr-Phe(2F)-Thr-Ser-Asp-Bip-Bip-C(O)NH2] (H-H[Aib]EAT[Phe(2-F)]TSD[Bip][Bip]-NH2)
EC50 (Table 2, cell marked (0% albumin), read-out: cAMP EC50, nM (0% albumin)): 347 nM

SMILES: C[C@@H](O)[C@H](NC(=O)CNC(=O)[C@H](CCC(=O)O)NC(=O)C(C)(C)NC(=O)[C@H](Cc1c[nH]cn1)NC(=O)[C@@H](N)Cc1c[nH]c2ccccc12)C(=O)N[C@@H](Cc1ccccc1)C(=O)N[C@H](C(=O)N[C@@H](CO)C(=O)N[C@@H](CC(=O)O)C(=O)N[C@@H](Cc1ccc(-c2ccccc2)cc1)C(=O)N[C@@H](Cc1ccc(-c2ccccc2)cc1)C(N)=O)[C@@H](C)O [2-5, H2N-Trp-His-Aib-Glu-Gly-Thr-Phe-Thr-Ser-Asp-Bip-Bip-C(O)NH2] (H-WH[Aib]EGTFTSD[Bip][Bip]-NH2)
EC50 [3]: 10.9 nM

SMILES: C[C@@H](O)[C@H](NC(=O)CNC(=O)[C@H](CCC(=O)O)NC(=O)C(C)(C)NC(=O)[C@@H](N)Cc1c[nH]cn1)C(=O)NC(C)(C)C(=O)N[C@H](C(=O)N[C@@H](CO)C(=O)N[C@@H](CC(=O)O)C(=O)N[C@@H](Cc1ccc(-c2ccccc2)cc1)C(=O)N[C@@H](Cc1ccc(-c2ccccc2)cc1)C(N)=O)[C@@H](C)O [3-18, H2N-His-Aib-Glu-Gly-Thr-Aib-Thr-Ser-Asp-Bip-Bip-C(O)NH2] (H-H[Aib]EGT[Aib]TSD[Bip][Bip]-NH2)
EC50 [4]: 152 nM

SMILES: C[C@H](N)C(=O)NC(C)(C)C(=O)N[C@@H](CCC(=O)O)C(=O)NCC(=O)N[C@H](C(=O)N[C@@H](Cc1ccccc1F)C(=O)N[C@H](C(=O)N[C@@H](CO)C(=O)N[C@@H](CC(=O)O)C(=O)N[C@@H](Cc1ccc(-c2ccccc2)cc1)C(=O)N[C@@H](Cc1ccc(-c2ccccc2)cc1)C(N)=O)[C@@H](C)O)[C@@H](C)O [3-20, H2N-Ala-Aib-Glu-Gly-Thr-Phe(2-F)-Thr-Ser-Asp-Bip-Bip-C(O)NH2] (H-A[Aib]EGT[Phe(2-F)]TSD[Bip][Bip]-NH2)
EC50 [1]: 66 nM

SMILES: C[C@@H](O)[C@H](NC(=O)CNC(=O)[C@H](CCC(=O)O)NC(=O)C(C)(C)NC(=O)[C@@H](N)Cc1c[nH]cn1)C(=O)N[C@@H](Cc1c(F)c(F)c(F)c(F)c1F)C(=O)N[C@H](C(=O)N[C@@H](CO)C(=O)N[C@@H](CC(=O)O)C(=O)N[C@@H](Cc1ccc(-c2ccccc2)cc1)C(=O)N[C@@H](Cc1ccc(-c2ccccc2)cc1)C(N)=O)[C@@H](C)O [3-10, H2N-His-Aib-Glu-Gly-Thr-Phe(2,3,4,5,6-F)-Thr-Ser-Asp-Bip-Bip-C(O)NH2] (H-H[Aib]EGT[Phe(F5)]TSD[Bip][Bip]-NH2)
EC50 [4]: 1.8 nM

SMILES: C[C@@H](O)[C@H](NC(=O)CNC(=O)[C@H](CCC(=O)O)NC(=O)C(C)(C)NC(=O)[C@@H](N)Cc1c[nH]cn1)C(=O)N[C@@H](Cc1ccccc1F)C(=O)N[C@H](C(=O)N[C@@H](CO)C(=O)N[C@@H](CC(=O)O)C(=O)N[C@@H](Cc1ccc(-c2ccccc2)cc1)C(=O)N[C@@H](Cc1ccc(-c2ccccc2)cc1)C(N)=O)[C@@H](C)O [3-1, H2N-His-Aib-Glu-Gly-Thr-Phe(2-F)-Thr-Ser-Asp-Bip-Bip-C(O)NH2] (H-H[Aib]EGT[Phe(2-F)]TSD[Bip][Bip]-NH2)
EC50 [4]: 0.32 nM

SMILES: C[C@@H](O)[C@H](NC(=O)CNC(=O)C(C)(C)NC(=O)C(C)(C)NC(=O)[C@@H](N)Cc1c[nH]cn1)C(=O)N[C@@](C)(Cc1ccccc1F)C(=O)N[C@H](C(=O)N[C@@H](CO)C(=O)N[C@@H](CC(=O)O)C(=O)N[C@@H](Cc1ccc(-c2ccccc2)cc1)C(=O)N[C@@H](Cc1ccc(-c2ccccc2)cc1)C(N)=O)[C@@H](C)O [3-31, H2N-His-Aib-Aib-Gly-Thr-αMePhe(2-F)-Thr-Ser-Asp-Bip-Bip-C(O)NH2] (H-H[Aib][Aib]GT[αMePhe(2-F)]TSD[Bip][Bip]-NH2)
EC50 (cAMP EC50, nM (0.1% albumin), Table 3, 0.1% albumin): 4.9 nM
